Source: patent US20110044938A1 (NYCOMED GMBH, priority 2006, published 2011)

How the values were obtained:
[1] = system: RKO (RKOp27) human colon adenocarcinoma cells; experiment: Alamar Blue cell viability assay, anti-proliferative/cytotoxic activity on proliferating RKO subclones; format: cell-based; details: RKOp27, 72 h, RKO p27 uninduced (proliferating) cells, value = class bound given in Table A, read-out: −logIC50 RKO p27 uninduced (proliferating) (converted)
Summary of the method: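 Alamar Blue fluorescence (ex 544, em 590 nm) after 72 h compound exposure at 37 °C, 5% CO2, normalised to untreated controls set at 100%. Cells were seeded at 5000 per well and dosed 24 h later with serial semi-logarithmic dilutions in 10% FCS DMEM, four replicates each. −log IC50 [mol/l] was derived from concentration-effect curves.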

[2] = system: subclones of RKO colon adenocarcinoma cells (RKOp27 or RKOp21) arrested by Ponasterone A; experiment: Alamar Blue cell viability assay, cell cycle specific mode of action: cells arrested by ectopic p27Kip1 induced by Ponasterone A versus proliferating cells; format: cell-based; details: Homo sapiens, RKO p27 induced (arrested) cells, 10 μM Ponasterone A, 72 hours, value = class bound given in Table A, read-out: −logIC50 RKO p27 induced (arrested) (converted)
Summary of the method: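 Viability of proliferating versus Ponasterone A (10 μM)-arrested RKOp27/RKOp21 cells after 72 h compound exposure at 37° C, in quadruplicate. Read-out is Alamar Blue fluorescence (544/590 nm) normalised to untreated cells = 100%; values as −log IC50.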

SMILES	IC50 [2]	IC50 [1]
COc1cccc(CCC(=O)Nc2sc3c(c2C#N)CCC(COC(=O)NCc2cnn(C)c2)C3)c1 (stereo not shown) [Example 239, (1-Methyl-1H-pyrazol-4-ylmethyl)-carbamic acid 3-cyano-2-[3-(3-methoxy-phenyl)-propanoylamino]-4,5,6,7-tetrahydro-benzo[b]thiophen-6-ylmethyl ester]	≥ 100000 nM	≤ 501 nM
COc1cccc(CCC(=O)Nc2sc3c(c2C#N)CCC(COC(=O)NCc2cc(C)on2)C3)c1 (stereo not shown) [Example 240, (5-Methyl-isoxazol-3-ylmethyl)-carbamic acid 3-cyano-2-[3-(3-methoxy-phenyl)-propanoylamino]-4,5,6,7-tetrahydro-benzo[b]thiophen-6-ylmethyl ester]	≥ 100000 nM	≤ 501 nM
COc1cccc(CCC(=O)Nc2sc3c(c2C#N)CCC(COC(=O)NCC2CCCO2)C3)c1 (stereo not shown) [Example 241, (Tetrahydro-furan-2-ylmethyl)-carbamic acid 3-cyano-2-[3-(3-methoxy-phenyl)-propanoylamino]-4,5,6,7-tetrahydro-benzo[b]thiophen-6-ylmethyl ester]	≥ 100000 nM	501 to 2000 nM
COc1cccc(CCC(=O)Nc2sc3c(c2C#N)CCC(COC(=O)NCc2cnoc2C)C3)c1 (stereo not shown) [Example 242, (5-Methyl-isoxazol-4-ylmethyl)-carbamic acid 3-cyano-2-[3-(3-methoxy-phenyl)-propanoylamino]-4,5,6,7-tetrahydro-benzo[b]thiophen-6-ylmethyl ester]	≥ 100000 nM	≤ 501 nM
COc1cccc(CCC(=O)Nc2sc3c(c2C#N)CCC(COC(=O)NCc2ccno2)C3)c1 (stereo not shown) [Example 243, Isoxazol-5-ylmethyl-carbamic acid 3-cyano-2-[3-(3-methoxy-phenyl)-propanoylamino]-4,5,6,7-tetrahydro-benzo[b]thiophen-6-ylmethyl ester]	≥ 100000 nM	501 to 2000 nM
COc1cccc(CCC(=O)Nc2sc3c(c2C#N)CCC(COC(=O)NCc2cc(C)no2)C3)c1 (stereo not shown) [Example 244, (3-Methyl-isoxazol-5-ylmethyl)-carbamic acid 3-cyano-2-[3-(3-methoxy-phenyl)-propanoylamino]-4,5,6,7-tetrahydro-benzo[b]thiophen-6-ylmethyl ester]	≥ 100000 nM	≤ 501 nM
COc1cccc(CCC(=O)Nc2sc3c(c2C#N)CCC(COC(=O)N2CCOCC2)C3)c1 (stereo not shown) [Example 245, Morpholine-4-carboxylic acid 3-cyano-2-[3-(3-methoxy-phenyl)-propanoylamino]-4,5,6,7-tetrahydro-benzo[b]thiophen-6-ylmethyl ester]	≥ 100000 nM	≤ 501 nM
COc1cccc(CCC(=O)Nc2sc3c(c2C#N)CCC(COC(=O)N2CCCC2)C3)c1 (stereo not shown) [Example 246, Pyrrolidine-1-carboxylic acid 3-cyano-2-[3-(3-methoxy-phenyl)-propanoylamino]-4,5,6,7-tetrahydro-benzo[b]thiophen-6-ylmethyl ester]	≥ 100000 nM	≤ 501 nM
COc1cccc(CCC(=O)Nc2sc3c(c2C#N)CCC(COC(=O)NCc2csc(C)n2)C3)c1 (stereo not shown) [Example 247, (2-Methyl-thiazol-4-ylmethyl)-carbamic acid 3-cyano-2-[3-(3-methoxy-phenyl)-propanoylamino]-4,5,6,7-tetrahydro-benzo[b]thiophen-6-ylmethyl ester]	≥ 100000 nM	≤ 501 nM
CCNC(=O)OC1CCc2c(sc(NC(=O)CCc3cccc(OC)c3)c2C#N)C1 (stereo not shown) [Example 248, Ethyl-carbamic acid 3-cyano-2-[3-(3-methoxy-phenyl)-propanoylamino]-4,5,6,7-tetrahydro-benzo[b]thiophen-6-yl ester]	≥ 100000 nM	≤ 501 nM
COc1cccc(CCC(=O)Nc2sc3c(c2C#N)CCC(OC(=O)NC2CC2)C3)c1 (stereo not shown) [Example 249, Cyclopropyl-carbamic acid 3-cyano-2-[3-(3-methoxy-phenyl)-propanoylamino]-4,5,6,7-tetrahydro-benzo[b]thiophen-6-yl ester]	≥ 100000 nM	≤ 501 nM
COc1cccc(CCC(=O)Nc2sc3c(c2C#N)CCC(OC(=O)NCCO)C3)c1 (stereo not shown) [Example 250, (2-Hydroxy-ethyl)-carbamic acid 3-cyano-2-[3-(3-methoxy-phenyl)-propanoylamino]-4,5,6,7-tetrahydro-benzo[b]thiophen-6-yl ester]	≥ 100000 nM	≤ 501 nM
COc1cccc(CCC(=O)Nc2sc3c(c2C#N)CCC(OC(=O)NC2CCOCC2)C3)c1 (stereo not shown) [Example 251, (Tetrahydro-pyran-4-yl)-carbamicacid 3-cyano-2-[3-(3-methoxy-phenyl)-propanoylamino]-4,5,6,7-tetrahydro-benzo[b]thiophen-6-yl ester]	≥ 100000 nM	501 to 2000 nM
CCNC(=O)OCC1CCc2c(sc(NC(=O)CCc3cccc(OC)c3)c2C#N)C1 (stereo not shown) [Example 252, Ethyl-carbamic acid 3-cyano-2-[3-(3-methoxy-phenyl)-propanoylamino]-4,5,6,7-tetrahydro-benzo[b]thiophen-6-ylmethyl ester]	≥ 100000 nM	≤ 501 nM
COc1cccc(CCC(=O)Nc2sc3c(c2C#N)CCC(COC(=O)NC2CC2)C3)c1 (stereo not shown) [Example 253, Cyclopropyl-carbamic acid 3-cyano-2-[3-(3-methoxy-phenyl)-propanoylamino]-4,5,6,7-tetrahydro-benzo[b]thiophen-6-ylmethyl ester]	≥ 100000 nM	≤ 501 nM
CCOc1ccccc1CCC(=O)Nc1sc2c(c1C#N)CCC(OC(=O)NCc1csc(C)n1)C2 (stereo not shown) [Example 254, (2-Methyl-thiazol-4-ylmethyl)-carbamic acid 3-cyano-2-[3-(2-ethoxy-phenyl)-propanoylamino]-4,5,6,7-tetrahydro-benzo[b]thiophen-6-yl ester]	≥ 100000 nM	≤ 501 nM
COC(=O)OCC1CCc2c(sc(NC(=O)CCc3cccc(OC)c3)c2C#N)C1 (stereo not shown) [Example 255, Carbonic acid 3-cyano-2-[3-(3-methoxy-phenyl)-propanoylamino]-4,5,6,7-tetrahydro-benzo[b]thiophen-6-ylmethyl ester methyl ester]	≥ 100000 nM	501 to 2000 nM

Now from value to compound, other results behind:

IC50 [2]	SMILES	IC50 [1]
≥ 100000 nM	Cc1cc(CNC(=O)OCC2CCc3c(sc(NC(=O)CCc4cccnc4)c3C#N)C2)no1 (stereo not shown) [Example 256, (5-Methyl-isoxazol-3-ylmethyl)-carbamic acid 3-cyano-2-(3-pyridin-3-yl-propanoylamino)-4,5,6,7-tetrahydro-benzo[b]thiophen-6-ylmethyl ester]	501 to 2000 nM
≥ 100000 nM	Cc1cc(CNC(=O)OCC2CCc3c(sc(NC(=O)CCc4cccnc4)c3C#N)C2)on1 (stereo not shown) [Example 257, (3-Methyl-isoxazol-5-ylmethyl)-carbamic acid 3-cyano-2-(3-pyridin-3-yl-propanoylamino)-4,5,6,7-tetrahydro-benzo[b]thiophen-6-ylmethyl ester]	501 to 2000 nM
≥ 100000 nM	N#Cc1c(NC(=O)CCc2cccnc2)sc2c1CCC(COC(=O)N1CCCC1)C2 (stereo not shown) [Example 258, Pyrrolidine-1-carboxylic acid 3-cyano-2-(3-pyridin-3-yl-propanoylamino)-4,5,6,7-tetrahydro-benzo[b]thiophen-6-ylmethyl ester]	501 to 2000 nM
≥ 100000 nM	COc1cccc(CCC(=O)Nc2sc3c(c2C#N)CCC(OC(=O)NCc2cccnc2)C3)c1 (stereo not shown) [Example 259, Pyridin-3-ylmethyl-carbamic acid 3-cyano-2-[3-(3-methoxy-phenyl)-propanoylamino]-4,5,6,7-tetrahydro-benzo[b]thiophen-6-yl ester]	≤ 501 nM
≥ 100000 nM	COc1cccc(CCC(=O)Nc2sc3c(c2C#N)CCC(OC(=O)NCc2nccn2C)C3)c1 (stereo not shown) [Example 261, (1-Methyl-1H-imidazol-2-ylmethyl)-carbamic acid 3-cyano-2-[3-(3-methoxy-phenyl)-propanoylamino]-4,5,6,7-tetrahydro-benzo[b]thiophen-6-yl ester]	≤ 501 nM
≥ 50100 nM	COc1cccc(CCC(=O)Nc2sc3c(c2C#N)CCC(COC(=O)OCc2nccs2)C3)c1 (stereo not shown) [Example 262, Carbonic acid 3-cyano-2-[3-(3-methoxy-phenyl)-propanoylamino]-4,5,6,7-tetrahydro-benzo[b]thiophen-6-ylmethyl ester thiazol-2-ylmethyl ester]	501 to 2000 nM
≥ 50100 nM	COc1cccc(CCC(=O)Nc2sc3c(c2C#N)CCC(OC(=O)NCCn2ccnc2)C3)c1 (stereo not shown) [Example 263, (2-Imidazol-1-yl-ethyl)-carbamic acid 3-cyano-2-[3-(3-methoxy-phenyl)-propanoylamino]-4,5,6,7-tetrahydro-benzo[b]thiophen-6-yl ester]	≤ 501 nM
≥ 50100 nM	COc1cccc(CCC(=O)Nc2sc3c(c2C#N)CCC(OC(=O)Nc2cccnc2)C3)c1 (stereo not shown) [Example 264, Pyridin-3-yl-carbamic acid 3-cyano-2-[3-(3-methoxy-phenyl)-propanoylamino]-4,5,6,7-tetrahydro-benzo[b]thiophen-6-yl ester]	501 to 2000 nM
≥ 50100 nM	COc1cccc(CCC(=O)Nc2sc3c(c2C#N)CCC(OC(=O)NCc2cncn2C)C3)c1 (stereo not shown) [Example 265, (3-Methyl-3H-imidazol-4-ylmethyl)-carbamic acid 3-cyano-2-[3-(3-methoxy-phenyl)-propanoylamino]-4,5,6,7-tetrahydro-benzo[b]thiophen-6-yl ester]	≤ 501 nM
